From US4277479A, “Tetrazolylalkoxycarbostyril derivatives and pharmaceutical compositions containing them” (Otsuka Pharmaceutical Co., Ltd., priority 1978, dated 1981)

Columns and labels:
[1] = target: T1, cyclic AMP phosphodiesterase (Oryctolagus cuniculus, UniProt G1ST54); experiment: Obstructive action against cyclic AMP phosphodiesterase; type: biochemical, rabbit; details: 0.4 μmol cyclic AMP, read-out: Phosphodiesterase obstruction rate; for inhibition at 1 µM: concentration of test compound solution 10^-6 mole; for inhibition: concentration of test compound solution 10^-7 mole; for inhibition at 0.01 µM: concentration of test compound solution 10^-8 mole; for inhibition at 0.001 µM: concentration of test compound solution 10^-9 mole
T1 construct: the supernatant was collected to use it as a crude enzyme solution; from tissue; host or cells: rabbit platelets (from platelet-rich plasma)
T1 sequence (G1ST54 1-1128): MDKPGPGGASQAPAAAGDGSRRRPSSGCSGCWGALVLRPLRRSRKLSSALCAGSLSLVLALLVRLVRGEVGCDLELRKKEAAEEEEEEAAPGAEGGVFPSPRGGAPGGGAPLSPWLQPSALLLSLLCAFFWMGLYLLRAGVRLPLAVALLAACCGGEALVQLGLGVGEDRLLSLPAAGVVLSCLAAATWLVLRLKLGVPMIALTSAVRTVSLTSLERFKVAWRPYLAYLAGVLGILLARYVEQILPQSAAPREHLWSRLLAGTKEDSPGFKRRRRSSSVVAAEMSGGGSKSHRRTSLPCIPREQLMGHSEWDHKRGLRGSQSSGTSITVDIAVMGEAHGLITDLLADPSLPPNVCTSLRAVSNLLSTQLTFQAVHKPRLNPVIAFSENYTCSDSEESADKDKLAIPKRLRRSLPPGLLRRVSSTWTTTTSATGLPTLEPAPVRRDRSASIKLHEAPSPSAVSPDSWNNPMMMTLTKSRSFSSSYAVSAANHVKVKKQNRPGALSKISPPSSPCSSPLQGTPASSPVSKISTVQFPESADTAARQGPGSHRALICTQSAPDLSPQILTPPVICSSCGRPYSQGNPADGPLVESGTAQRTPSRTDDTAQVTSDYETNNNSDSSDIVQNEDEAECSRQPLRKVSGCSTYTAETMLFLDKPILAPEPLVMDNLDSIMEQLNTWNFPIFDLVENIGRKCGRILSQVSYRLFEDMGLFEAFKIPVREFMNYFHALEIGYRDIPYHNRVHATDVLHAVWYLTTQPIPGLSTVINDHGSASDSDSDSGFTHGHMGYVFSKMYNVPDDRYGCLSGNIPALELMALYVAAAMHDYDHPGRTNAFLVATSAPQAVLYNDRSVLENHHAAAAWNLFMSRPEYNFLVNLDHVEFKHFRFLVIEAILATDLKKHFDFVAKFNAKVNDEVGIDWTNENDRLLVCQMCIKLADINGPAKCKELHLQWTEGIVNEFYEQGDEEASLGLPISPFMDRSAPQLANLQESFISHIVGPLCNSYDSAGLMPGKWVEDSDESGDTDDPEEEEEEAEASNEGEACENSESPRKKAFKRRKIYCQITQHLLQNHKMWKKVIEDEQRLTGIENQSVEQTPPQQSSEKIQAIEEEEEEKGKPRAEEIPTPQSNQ
Description: (Test of obstructive action against cyclic AMP phosphodiesterase)
The obstructive action against cyclic AMP phosphodiesterase was measured according to the activity measuring method described in "Biochimica et Biophysica Acta", Vol. 429, pp. 485-497 (1976) and "Biochemical Medicine", Vol. 10, pp. 301-311 (1974).
That is, for determining the obstructive activity against cyclic AMP phosphodiesterase, 10 ml of a solution obtained by adding 1 mmol of MgCl2 into 50 mmol of tris-hydrochloric acid buffer with pH 7.4 was added to the platelets obtained by further centrifuging the above-said rabbit PRP at 3,000 r.p.m. for 10 minutes, and the suspended platelets were ground by a Teflon potter type homogenizer. This was followed by two times of freezing and thawing treatment and 300-second fracturing with 200 watt supersonic waves. After additional 60-minute centrifugation with 100,000 g, the supernatant was collected to use it as a crude enzyme solution.
10 Milliliters of this crude buffer solution was added to a 1.5×20 cm DEAE-cellulose column which has previously been buffered with 50 mmol of tris-acetate buffer (pH 6.0), followed by washing and elution with 30 ml of 50 mmol tris-acetate buffer, and this buffer solution was subjected to linear gradient elution with 0 to 1 moles of sodium acetate-tris-acetate buffer. The flow rate was 0.5 ml/min, and 5 ml of each fraction was batched out. […] This fraction was used as cyclic AMP phosphodiesterase.
0.1 Milliliter of an aqueous solution of each test compound of a specified concentration was mixed with 40 mmol of tris-hydrochloric acid buffer (pH 8.0, containing 50 μg of cow serum albumin and 4 mmol of MgCl2) containing predetermined 0.4 μmol of cyclic AMP (tritium cyclic AMP), and 0.2 ml of this mixed solution was used as a substrate solution.
0.2 Milliliter of the above-prepared cyclic AMP phosphodiesterase of a predetermined concentration was added to said substrate solution and the mixture was reacted at 30° C. for 20 minutes, producing tritium 5'-AMP from the tritium cyclic AMP.
The reaction system was then immersed in boiling water for 2 minutes to stop the reaction, and then this reaction solution was cooled in ice water and, for converting the produced tritium 5'-AMP into tritium adenosine, the solution was added with 0.05 ml (1 mg/ml) of snake poison as 5'-nucleotidase and reacted at 30° C. for 10 minutes. The whole amount of this reaction solutions was then added to a cation exchange resin (AG 500 W×4, 200-400 meshes, manufactured by Bio-Rad Co., column size: 0.5×1.5 cm), and the produced tritium anodesine alone was allowed to combine, washed with 6 ml of distilled water and eluted with 1.5 ml of 3 N-ammonia water. The whole quantity of the elutant was added with 10 ml of a triton-toluene type scintillator and the produced tritium adenosine was measured by a liquid scintillation counter to determine the phosphodiesterase activity.
In this way, the phosphodiesterase activation value (Vs) of the test compounds of the respective concentrations was determined, and the phosphodiesterase obstruction rate (%) was determined from said activation value (Vs) and control value (Vc) (obtained from water not containing any test compound) from the following formula: [formula]

Acute toxicity test = details: mouse, in vivo; male mice, oral administration
Description: The test compounds were administered orally to the mice and LD50 (mg/kg) of the compounds was determined.

Row | Structure (SMILES) | inhibition at 1 µM [1] | inhibition [1] | inhibition at 0.01 µM [1] | inhibition at 0.001 µM [1] | LD50 (Acute toxicity test)
1 | O=c1ccc2cc(OCCCc3nnnn3C3CCCCC3)ccc2[nH]1 [Compound 1, 6-[3-(1-Cyclohexyltetrazol-5-yl)propoxy]carbostyril] | 92.9% | 83.8% | 58.4% | 44.7% | > 1000 mg/kg
2 | O=c1ccc2cc(OCCCc3nnnn3CC3CCCCC3)ccc2[nH]1 [Compound 5, 6-[3-(1-Cyclohexylmethyltetrazol-5-yl)propoxy]carbostyril] | 89.9% | 73.4% | 55.2% | 38.6% | > 1000 mg/kg
3 | O=c1ccc2cc(OCCCc3nnnn3C3CCCCCCC3)ccc2[nH]1 [Compound 6, 6-[3-(1-Cyclooctyltetrazol-5-yl)propoxy]carbostyril] | 88.4% | 79.6% | 57.4% | 36.5% | > 1000 mg/kg
4 | O=c1ccc2cc(OCCCCc3nnnn3C3CCCCC3)ccc2[nH]1 [Compound 7, 6-[4-(1-Cyclohexyltetrazol-5-yl)butoxy]carbostyril] | – | 98.4% | 68.3% | 50.6% | > 1000 mg/kg
